Assay [1] relates to Psoriasis mouse model. Nature of the assay: IL-23 psoriasis mouse model, comparative efficacy of Compound 1 ointment and Flecainide ointment, symptom score. The assay is classed as in vivo, mice. The conditions noted are these: 0.1% ointment; for therapeutic effect compared to the model group: 30 mg applied on the back for 4 consecutive days. As for the experimental part: (§1) Psoriasis mouse model was established by intradermal injection of recombinant […] (1 ng/20 μL PBS, per mouse per day for 4 consecutive days) into depilated mice on the back.
Each group was applied with different substances (as shown in Table 1) on the backs of the mice for 4 consecutive days. The symptoms of the model mice and the treatment group mice were scored from Day 1.
The calculation rule or the number of days was: the number of days will be calculated from the end of modeling, which will be recorded as Day 0, followed by Day 1, Day 2, etc.
The formulation and preparation method of Flecainide ointment can be referred to as Example 4, which differed from Example 4 only in that the main drug was replaced with an equivalent amount of Flecainide (wherein the mass concentration of flecainide in the flecainide ointment was 0.1%).
(§2) Scoring criteria: 0 points, no symptom; 1 point, skin erythema; 2 points, scattered scurf, 3 points, diffuse dandruff, 4 points, skin sclerosis; 5 points, erythroderma or death.

The test system of assay [2] is Psoriasis mouse model. The assay is described as follows: IL-23 psoriasis mouse model, Compound 1 by subcutaneous or intradermal injection, symptom score. The assay is classed as in vivo, mice. The conditions noted are these: for symptom score: 4 consecutive days, scored on Day 6, scale 0-5. Here is the method: as §1
On Day 2 after modeling, the psoriasis model mice were randomly divided into 3 groups, with the same number of mice in each group, and divided into a model group, treatment group (the treatment group included a subcutaneous treatment group and an intradermal treatment group), with the model group as a control. […] The model group was injected with 20 μL of normal saline intradermally. All three groups were injected for 4 consecutive days. On Day 6, the symptoms of the model and treatment groups were scored.
(§3) The calculation rule for the number of days was: the number of days will be calculated from the end of modeling, which will be recorded as Day 0, followed by Day 1, Day 2, etc.
as §2

Assay [3] has as its system Psoriasis mouse model. The conditions noted are these: ointment 30 mg applied for 4 consecutive days, scored on Day 6; 0.01%, 0.1%, 0.2%, 0.5%, 1% tested. Here is the method: as §1, §3, §2
The test system of assay [4] is Psoriasis mouse model. The conditions noted are these: 0.025% ointment, 200 mg applied on the back for 6 consecutive days.
Procedure: Psoriasis mouse model was established by intradermal injection of recombinant TL-23 (1 ng/20 μL PBS, per mouse per day for 4 consecutive days) into depilated mice on the back.
Each group was applied with different substances (as shown in Table 3) on the backs of the mice for 6 consecutive days. From Day 1, the symptoms of the back skin of the model mice and the mice in the treatment group were scored every day.
Where [5] appears, read: 30 mg applied on the back, scale 0-5.

Turning to `CCCNCC(O)COc1ccccc1C(=O)CCc1ccccc1` (stereo not drawn) [Compound 1, propafenone], the “therapeutic effect compared to the model group” value in assay [1] is on record as “significant therapeutic effect”. Besides, in assay [1] (setting [5]), the “symptom score on Day 2” value stood at 2 points. The “symptom score on Days 3 to 4” value in assay [1] (30 mg applied on the back, Days 3 to 4, scale 0-5) is 3 points. Also, the “symptom score on Days 7 and 8” value in assay [1] (30 mg applied on the back, Days 7 and 8, scale 0-5) was 1 points. For the same compound, the “symptom score from Day 5” value in assay [1] (30 mg applied on the back, from Day 5, scale 0-5) is listed as no more than 2 points. Further, the “therapeutic effect in dosing explorations” value in assay [2] (intracutaneous injections at 10 μg, 20 μg, 50 μg, 100 μg, 200 μg, 500 μg, 1 mg, 2 mg, 5 mg and 10 mg) is on record as “had therapeutic effects”. The symptom score in assay [2] (intradermal injection on the back, 0.07 mg per mouse per day) is reported as roughly 2 points; in assay [2] (subcutaneous injection on the back, 0.07 mg per mouse per day), roughly 3 points. The “therapeutic effect compared with the model group and the subcutaneous treatment group” value in assay [2] (intradermal injection, 0.07 mg per mouse per day, Day 6) is on record as “significant therapeutic effect”. Moreover, in assay [3], the “effective window dose of ointment (mass concentration) compared to the model group” value is 0.1%-0.5%.
With `CCCNC[C@H](O)COc1ccccc1C(=O)CCc1ccccc1` [Compound 2, S-propafenone], the treatment effect entry in assay [4] is given as “showed no treatment effect”.
On the same count and under the same terms, then `CCCNC[C@@H](O)COc1ccccc1C(=O)CCc1ccccc1` [Compound 3, R-propafenone], with “the treatment effect was more obvious”.
Turning to `O=C(NCC1CCCCN1)c1cc(OCC(F)(F)F)ccc1OCC(F)(F)F` (stereo not drawn) [Flecainide], in assay [1], the “therapeutic effect compared to the model group” value is “neither the Flecainide ointment nor the ointment alone had a therapeutic effect”. Also, in assay [1] (setting [5]), the “symptom score on Day 2” value is recorded as 3 points. Moreover, the “symptom score on Days 2 to 7” value in assay [1] (30 mg applied on the back, Days 2 to 7, scale 0-5) came to 3 points.

These data come from US20260263391A1, “COMPOUND AND USE THEREOF” (BENETHERA (SHAOXING) BIOTECHNOLOGY CO., LTD., priority 2023, published 2026).
